For 20 molecules, Ki results are on record in US12492181B2, “Gem-disubstituted piperidine melanocortin subtype-2 receptor (MC2R) antagonists and uses thereof” (Crinetics Pharmaceuticals, Inc., priority 2019, dated 2025).

The target of this assay is T1, hMC2 receptor (crude hMC2R membranes from CRE-bla-CHO-K1 cells stably expressing hMC2 receptor and hMRAP accessory protein) (Homo sapiens, UniProt Q01718).
T1 construct: crude membrane fractions
T1 sequence (Q01718 whole entry): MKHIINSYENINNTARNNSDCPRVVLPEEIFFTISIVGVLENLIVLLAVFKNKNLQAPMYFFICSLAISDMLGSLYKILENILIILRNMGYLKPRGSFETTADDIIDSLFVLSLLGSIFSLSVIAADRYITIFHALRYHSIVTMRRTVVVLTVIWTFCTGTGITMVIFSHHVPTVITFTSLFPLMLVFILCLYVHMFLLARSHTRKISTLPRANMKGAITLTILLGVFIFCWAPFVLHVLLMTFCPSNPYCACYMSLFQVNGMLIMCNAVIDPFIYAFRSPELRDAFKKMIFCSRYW
T1 sequence (Q8TCY5 whole entry partner): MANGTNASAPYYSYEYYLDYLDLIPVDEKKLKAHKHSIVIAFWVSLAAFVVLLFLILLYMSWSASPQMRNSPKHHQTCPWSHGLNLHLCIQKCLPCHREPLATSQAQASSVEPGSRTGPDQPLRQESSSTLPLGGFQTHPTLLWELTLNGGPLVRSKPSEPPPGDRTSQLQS
Nature of the assay: hMC2 membrane binding assay ([125I]ACTH (1-39) Tyr23, SPA). To be noted: displacement of 0.2 nM [125I]ACTH (1-39) Tyr23 from hMC2R membranes, 1.5 hours at room temperature; read-out: MC2R binding potency. The procedure, abridged:
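Crude membranes from CRE-bla-CHO-K1 cells stably co-expressing hMC2R and hMRAP, premixed with WGA PVT SPA beads in pH 7.4 HEPES buffer (5 mM MgCl2, 1 mM CaCl2, 0.20% BSA, protease inhibitors). Compounds compete with [125I]ACTH(1-39) Tyr23, read by scintillation. Ki from non-linear regression.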
Turning to `COc1nc2ccccc2cc1-c1ccc(C2(C(=O)N[C@@H]3CCN(C)C3)CCN(c3ccc(C(F)(F)F)cc3C#N)CC2)cn1` [Compound 1-189, 1-[2-cyano-4-(trifluoromethyl)phenyl]-4-[6-(2-methoxyquinolin-3-yl)pyridin-3-yl]-N-[(3R)-1-methylpyrrolidin-3-yl]piperidine-4-carboxamide], the Ki was less than 0.01 µM.
Then `COc1ccccc1-c1ncc(C2(C(=O)N[C@@H]3CCN(C)C3)CCN(c3ccc(C(F)(F)F)cc3C#N)CC2)cc1F` [Compound 1-126, 1-[2-cyano-4-(trifluoromethyl)phenyl]-4-[5-fluoro-6-(2-methoxyphenyl)pyridin-3-yl]-N-[(3R)-1-methylpyrrolidin-3-yl]piperidine-4-carboxamide], with less than 0.01 µM.
Consider `CCOc1ccccc1-c1ccc(C2(C(=O)NCCN(C)C)CCN(c3ccc(C(F)(F)F)cc3F)CC2)cn1` [Compound 1-226, N-[2-(dimethylamino)ethyl]-4-[6-(2-ethoxyphenyl)pyridin-3-yl]-1-[2-fluoro-4-(trifluoromethyl)phenyl]piperidine-4-carboxamide], for which the Ki was less than 0.01 µM.
On to `CCOc1ccccc1-c1ncc(C2(C(=O)NCCN(C)C)CCN(c3ccc(C(F)(F)F)cc3Cl)CC2)cc1F` [Compound 1-291, 1-[2-chloro-4-(trifluoromethyl)phenyl]-N-[2-(dimethylamino)ethyl]-4-[6-(2-ethoxyphenyl)-5-fluoropyridin-3-yl]piperidine-4-carboxamide], for which the Ki is less than 0.01 µM.
To `CNCCNC(=O)C1(c2cnc(-c3cccn3C)c(F)c2)CCN(c2ccc(C(F)(F)F)cc2F)CC1` [Compound 1-305, 1-[2-fluoro-4-(trifluoromethyl)phenyl]-4-[5-fluoro-6-(1-methyl-1H-pyrrol-2-yl)pyridin-3-yl]-N-[2-(methylamino)ethyl]piperidine-4-carboxamide] belongs less than 0.01 µM; to `CCOc1ccccc1-c1ccc(C2(NC(=O)CCN(C)C)CCN(c3ccc(Cl)cc3C#N)CC2)cn1` [Compound 2-30, N-[1-(4-chloro-2-cyanophenyl)-4-[6-(2-ethoxyphenyl)pyridin-3-yl]piperidin-4-yl]-3-(dimethylamino)propanamide], less than 0.01 µM; to `CN1CC[C@H](NC(=O)C2(c3ccc(-c4ccccc4C(F)F)nc3)CCN(c3ccc(C(F)(F)F)cc3C#N)CC2)C1` [Compound 1-151, 1-[2-cyano-4-(trifluoromethyl)phenyl]-4-{6-[2-(difluoromethyl)phenyl]pyridin-3-yl}-N-[(3S)-1-methylpyrrolidin-3-yl]piperidine-4-carboxamide], less than 0.01 µM.
As for `CC(C)CCn1nccc1-c1ccc(C2(C(=O)N[C@@H]3CCN(C)C3)CCN(c3ccc(C(F)(F)F)cc3C#N)CC2)cn1` [Compound 1-70, 1-[2-cyano-4-(trifluoromethyl)phenyl]-4-{6-[1-(3-methylbutyl)-1H-pyrazol-5-yl]pyridin-3-yl}-N-[(3R)-1-methylpyrrolidin-3-yl]piperidine-4-carboxamide], the Ki was 0.01 to 0.1 µM.
To `CCOc1ncccc1-c1ccc(C2(C(=O)N[C@H]3CCN(C)C3)CCN(c3ccc(C#N)cc3C#N)CC2)cn1` [Compound 1-40, 1-(2,4-dicyanophenyl)-4-{2′-ethoxy-[2,3′-bipyridin]-5-yl}-N-[(3S)-1-methylpyrrolidin-3-yl]piperidine-4-carboxamide] belongs less than 0.01 µM.
Then `CCOc1ncccc1-c1ncc(C2(C(=O)NCCNC)CCN(c3ccc(C(F)(F)F)cc3Cl)CC2)cc1F` [Compound 1-299, 1-[2-chloro-4-(trifluoromethyl)phenyl]-4-{2′-ethoxy-3-fluoro-[2,3′-bipyridin]-5-yl}-N-[2-(methylamino)ethyl]piperidine-4-carboxamide], with less than 0.01 µM; and `CCOc1ccccc1-c1ncc(C2(C(=O)NCCN(C)C)CCN(c3ccc(C(F)(F)F)cc3F)CC2)cc1F` [Compound 1-289, N-[2-(dimethylamino)ethyl]-4-[6-(2-ethoxyphenyl)-5-fluoropyridin-3-yl]-1-[2-fluoro-4-(trifluoromethyl)phenyl]piperidine-4-carboxamide], with less than 0.01 µM.
To `COc1ncccc1-c1ccc(C2(C(=O)NCCN(C)C)CCN(c3ccc(C(F)(F)F)cc3Cl)CC2)cn1` [Compound 1-273, 1-[2-chloro-4-(trifluoromethyl)phenyl]-N-[2-(dimethylamino)ethyl]-4-{2′-methoxy-[2,3′-bipyridin]-5-yl}piperidine-4-carboxamide] belongs less than 0.01 µM.
For `COc1ccccc1-c1ccc(C2(C(=O)NCCN(C)C)CCN(c3ccc(C(F)(F)F)cc3Cl)CC2)cn1` [Compound 1-255, 1-[2-chloro-4-(trifluoromethyl)phenyl]-N-[2-(dimethylamino)ethyl]-4-[6-(2-methoxyphenyl)pyridin-3-yl]piperidine-4-carboxamide], the Ki is less than 0.01 µM.
To `CCOc1ncccc1-c1ccc(C2(C(=O)NC[C@@H](N)CO)CCN(c3ccc(C(F)(F)F)cc3C#N)CC2)cn1` [Compound 1-17, N-[(2R)-2-amino-3-hydroxypropyl]-1-[2-cyano-4-(trifluoromethyl)phenyl]-4-{2′-ethoxy-[2,3′-bipyridin]-5-yl}piperidine-4-carboxamide] belongs less than 0.01 µM; to `CCc1ccccc1-c1ccc(C2(C(=O)N[C@@H]3CCN(C)C3)CCN(c3ccc(C(F)(F)F)cc3C#N)CC2)cn1` [Compound 1-60, 1-[2-cyano-4-(trifluoromethyl)phenyl]-4-[6-(2-ethylphenyl)pyridin-3-yl]-N-[(3R)-1-methylpyrrolidin-3-yl]piperidine-4-carboxamide], less than 0.01 µM; to `COc1ccccc1-c1ccc(C2(C(=O)N[C@@H]3CNC[C@@H]3F)CCN(c3ccc(C(F)(F)F)cc3C#N)CC2)cn1` [Compound 1-237, 1-[2-cyano-4-(trifluoromethyl)phenyl]-N-[(3R,4S)-4-fluoropyrrolidin-3-yl]-4-[6-(2-methoxyphenyl)pyridin-3-yl]piperidine-4-carboxamide], less than 0.01 µM.
Then `COc1ncccc1-c1ccc(C2(NC(=O)C3CN(C)C3)CCN(c3ccc(C(F)(F)F)cc3C#N)CC2)cn1` [Compound 2-40, N-{1-[2-cyano-4-(trifluoromethyl)phenyl]-4-{2′-methoxy-[2,3′-bipyridin]-5-yl}piperidin-4-yl}-1-methylazetidine-3-carboxamide], with less than 0.01 µM.
To `CCOc1ncccc1-c1ncc(C2(C(=O)N[C@@H](C)CN(C)C)CCN(c3ccc(Cl)cc3C#N)CC2)cc1F` [Compound 1-325, 1-(4-chloro-2-cyanophenyl)-N-[(2S)-1-(dimethylamino)propan-2-yl]-4-{2′-ethoxy-3-fluoro-[2,3′-bipyridin]-5-yl}piperidine-4-carboxamide] belongs less than 0.01 µM; to `COc1ccccc1-c1ccc(C2(NC(=O)N[C@H]3CCN(C)C3)CCN(c3ccc(C(F)(F)F)cc3C#N)CC2)cn1` [Compound 2-55, 1-{1-[2-cyano-4-(trifluoromethyl)phenyl]-4-[6-(2-methoxyphenyl)pyridin-3-yl]piperidin-4-yl}-3-[(3S)-1-methylpyrrolidin-3-yl]urea], less than 0.01 µM; to `CCOc1ncccc1-c1ccc(C2(NC(=O)[C@@H]3CCNC3)CCN(c3ccc(C(F)(F)F)cc3C#N)CC2)cn1` [Compound 2-6, (3R)—N-{1-[2-cyano-4-(trifluoromethyl)phenyl]-4-{2′-ethoxy-[2,3′-bipyridin]-5-yl}piperidin-4-yl}pyrrolidine-3-carboxamide], less than 0.01 µM.
